The record followed here is ChEMBL document CHEMBL5604062, “ASAP - ZIKV NS2B-NS3 protease fluorescence dose response” (2024).

pIC50: −log10 of the molar value. Where “and” joins values, the source holds several entries; their conditions need not be identical. Equal entries are not always repeated.

The target in this test is Nonstructural protein 3 (Zika virus, UniProt A0A024AXB9). Briefly: Functional biochemical assay to identify treatments for viral infectious disease that targets Zika NS2B-NS3 protease. Utilizing a direct enzyme activity measurement method, reading the fluorescence intensity is used to characterize the relative potency of inhibitors as IC50. Details: species or system PRVABC59.
Sequence of Nonstructural protein 3 (A0A024AXB9 whole entry): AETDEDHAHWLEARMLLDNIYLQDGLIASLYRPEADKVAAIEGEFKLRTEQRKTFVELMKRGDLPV
The compound `Cc1ncsc1C(=O)N[C@H](C(=O)Nc1cccc(CN)c1)c1ccc(OCc2ccccc2)cc1` gave a pIC50 below 4.00.
Compound `O=C(O)c1cc(Cl)ccc1NS(=O)(=O)c1ccc(OCc2ccncc2)cc1` gave a pIC50 below 4.00.
As to `Cc1noc(C)c1C(=O)N[C@@H](C(=O)Nc1cccc(CN)c1)c1ccc(OCc2ccccc2)cc1`, the pIC50 was below 4.00.
For `COc1ccc(F)cc1-c1ccc(S(=O)(=O)Nc2ccc(Cl)cc2C(=O)O)cc1` the value was 4.54; for `O=C(NCCO)c1cc(Cl)ccc1NS(=O)(=O)c1ccc(Oc2ccccc2Cl)cc1`, below 4.00.
With `NCc1cccc(NC(=O)[C@H](NC(=O)C2CCC2)c2ccc(OCc3ccccc3)cc2)c1` the figure was below 4.00.
Take `O=C(O)c1cc2c(cc1NS(=O)(=O)c1ccc(F)cc1)CCC2`: the pIC50 is below 4.00.
As for `CCc1ccccc1COc1ccc(S(=O)(=O)Nc2ccc(Cl)cc2C(=O)O)cc1`, the pIC50 is 4.90.
Turning to `NCc1cccc(NC(=O)C[C@H](NC(=O)OCc2ccccc2)c2ccc(OC(F)(F)F)cc2)c1`, the pIC50 was 4.47 and 4.40.
For `N[C@]12CCC[C@](C(=O)NCc3ccc4c(c3)CCNCC4)(CC1)C2` the value was below 4.00.
For the compound `O=C(O)c1cc(F)c(F)c(F)c1NS(=O)(=O)c1ccc(Oc2ccccc2Cl)cc1`, the pIC50 is 4.05.
On to `NCc1cccc(NC(=O)C[C@H](NC(=O)OCc2ccccc2)c2ccc(Cl)c(Br)c2)c1`, for which the pIC50 was 4.68 and 4.72 and 4.80 and 4.81.
With `CCn1nccc1-c1cccc([C@@H](NC(=O)OCc2ccccc2)C(=O)Nc2cccc(CN)c2)c1` the figure was below 4.00; with `NCCNC(=O)c1cc(Cl)ccc1NS(=O)(=O)c1ccc(Oc2ccccc2Cl)cc1`, below 4.00.
In turn, `O=C(O)c1cc(Cl)ccc1NS(=O)(=O)c1ccc(OCc2nnnn2C2CCC2)cc1` had a pIC50 below 4.00.
For `NCc1cccc(NC(=O)[C@H](NC(=O)OCc2ccccc2)c2ccc(Br)c(Cl)c2)c1`, the pIC50 was 4.96 and 5.06 and 5.08 and 5.03.
For `NCc1cccc(NC(=O)[C@H](NC(=O)OCc2ccccc2)c2ccc(Br)c(F)c2)c1` the value was 4.19; for `CC(C)Oc1ccccc1C(=O)N[C@H](C(=O)Nc1cccc(CN)c1)c1ccc(OCc2ccccc2)cc1`, 4.46; for `O=C(O)c1cc(Cl)ccc1NS(=O)(=O)c1ccc(OCc2cncnc2)cc1`, below 4.00.
`O=C(O)c1cc(Cl)ccc1NS(=O)(=O)c1ccc(NC2CCNCC2)nc1` gave a pIC50 below 4.00.
With `NCc1cccc(CNC(=O)c2cc(Cl)cc(NC(=O)OCc3ccccc3)c2)c1` the figure was 4.29.
In turn, `NCc1cccc(NC(=O)[C@H](NC(=O)OCc2ccccc2)c2cccc(-c3ccc(S(N)(=O)=O)cc3)c2)c1` had a pIC50 of 4.08.
`CCn1c(=O)c(N2C[C@H]3C[C@@]3(C(F)F)C2)nc2ccccc21` gave a pIC50 below 4.00.
`Cc1cc(F)cc(N(C)C(=O)c2ccc(C3(CN)CC3)cc2)c1` had a pIC50 below 4.00.
For `NCc1cccc(NC(=O)[C@H]2[C@H]3CCCC[C@H]3[C@@H]2NC(=O)OCc2ccccc2)c1` the value was 4.03.
For `CCn1c(=O)c(N2CC[C@H](c3nccn3C)C2)nc2ccccc21` the value was below 4.00.
In the case of `Cc1n[nH]cc1CC(=O)N1CCCC12CCN(C(=O)c1ccnc(CO)c1)CC2`, the pIC50 was below 4.00.
`NCc1cccc(NC(=O)C[C@H](NC(=O)OCc2ccccc2)c2ccc(Cl)c(F)c2)c1` showed a pIC50 of 4.15.
With `CC[C@H]1CN(C(=O)c2ccc(C3(CN)CC3)cc2)Cc2ccccc21` the figure was below 4.00; with `Cn1cnc2c1CN(Cc1ccc3c(c1)CCNCC3)CC2`, below 4.00; with `NCC1(NC(=O)[C@H](NC(=O)OCc2ccccc2)c2ccc(OCc3ccccc3)cc2)CCCCC1`, 4.23.
With `Cn1ccnc1C(=O)N[C@H](C(=O)Nc1cccc(CN)c1)c1ccc(OCc2ccccc2)cc1` the figure was below 4.00.
On to `NCc1cccc(NC(=O)[C@H](NC(=O)OCc2ccccc2)c2cccc(-c3cncc(F)c3)c2)c1`, for which the pIC50 is below 4.00.
`CCC(C)(C)C(=O)N[C@H](C(=O)Nc1cccc(CN)c1)c1ccc(OCc2ccccc2)cc1` gave a pIC50 below 4.00.
The compound `CCn1c(=O)c(N2CC[C@H](N3CCCC3=O)C2)nc2ccccc21` gave a pIC50 below 4.00.
`CCn1c(=O)c(N2CC[C@H](c3cnccn3)C2)nc2ccccc21`: the pIC50 is below 4.00.
With `CCn1c(=O)c(N2CC[C@]3(CCNC3=O)C2)nc2ccccc21` the figure was below 4.00.
Turning to `NCc1cccc(NC(=O)[C@]2(NC(=O)OCc3ccccc3)COc3cc(Br)ccc32)c1`, the pIC50 was below 4.00.
With `CCn1c(=O)c(N2C[C@H]3COC[C@@]3(C)C2)nc2ccccc21` the figure was below 4.00.
Compound `CC(C)[C@@H]1[C@H](C(=O)Nc2cccc(CN)c2)CCN1C(=O)OCc1ccccc1` gave a pIC50 below 4.00.
For `NCc1cccc(NC(=O)[C@H](NC(=O)C2CCCCC2)c2ccc(OCc3ccccc3)cc2)c1` the value was 4.65 and 4.70; for `Cn1ncc2cc(C(=O)N3CCC(NC(=O)[C@]4(C)CCC[C@H]4O)CC3)cc(O)c21`, below 4.00.
In turn, `CCn1c(=O)c(N2CC[C@H](c3ccccc3)C2)nc2ccccc21` had a pIC50 below 4.00.
For `CCOC(=O)c1cc(C(=O)N[C@H](C(=O)Nc2cccc(CN)c2)c2ccc(OCc3ccccc3)cc2)n(C)n1` the value was 4.63 and 4.64; for `Cc1occ(C(F)(F)F)c1C(=O)N[C@H](C(=O)Nc1cccc(CN)c1)c1ccc(OCc2ccccc2)cc1`, 4.21.
Take `NCc1cccc(NC(=O)[C@H](NC(=O)[C@H]2CCOC2)c2ccc(OCc3ccccc3)cc2)c1`: the pIC50 was below 4.00.
For `NCc1cccc(NC(=O)[C@H](NC(=O)c2ccccc2Cl)c2ccc(OCc3ccccc3)cc2)c1` the value was 4.48.
For `C[C@]1(C(=O)N[C@H](C(=O)Nc2cccc(CN)c2)c2ccc(OCc3ccccc3)cc2)COc2ccccc2O1`, the pIC50 was 4.77.
For `NCc1cccc(NC(=O)[C@@H](NC(=O)OCc2ccccc2)c2ccc(OCc3ncccn3)cc2)c1` the value was 4.32.
For `NCc1cccc(NC(=O)[C@H]2[C@H]3CCCCC[C@H]3[C@H]2NC(=O)OCc2ccccc2)c1`, the pIC50 is 4.38 and 4.29 and 4.89 and 4.92.
For `CCn1c(=O)c(N2CC[C@]3(CNC(=O)O3)C2)nc2ccccc21` the value was below 4.00; for `Cc1cc(-c2cccc([C@@H](NC(=O)OCc3ccccc3)C(=O)Nc3cccc(CN)c3)c2)ccn1`, 4.06.
Compound `CCn1c(=O)c(N2C[C@H]3CCS(=O)(=O)[C@H]3C2)nc2ccccc21` showed a pIC50 below 4.00.
For `NCc1cccc(NC(=O)[C@H](NC(=O)c2ccncc2)c2ccc(OCc3ccccc3)cc2)c1` the value was below 4.00; for `NCc1cccc(N(C(=O)CNC(=O)OCc2ccccc2)c2ccc(OCc3ccccc3)cc2)c1`, below 4.00.
For `NCc1cccc(NC(=O)[C@H](NC(=O)OCc2ccccc2)c2ccc(CO)cc2)c1` the value was below 4.00; for `NCc1cccc(NC(=O)[C@H](NS(=O)(=O)c2ccc(Oc3ccccc3Cl)cc2)c2ccc(OCc3ccccc3)cc2)c1`, 4.18.
In turn, `Cc1ccc([C@H]2[C@H](C)CN2C(=O)c2ccc(C(F)(F)CN)cc2)cc1` had a pIC50 below 4.00.
For the compound `O=C(O)c1ccc(F)c(F)c1NS(=O)(=O)c1ccc(Oc2ccccc2Cl)cc1`, the negative-log IC50 (pIC50) is below 4.00.
Compound `CCn1c(=O)c(N2C[C@@H]3C[C@]3(CO)C2)nc2ccccc21` had a pIC50 below 4.00.
In turn, `CCn1c(=O)c(N2C[C@H](O)C3(CC3)C2)nc2ccccc21` gave a pIC50 below 4.00.
For `CCn1c(=O)c(N2C[C@]3(CO)C[C@H]2CO3)nc2ccccc21`, the negative logarithm of the IC50 (pIC50) was below 4.00.
For `CCc1n[nH]cc1-c1cccc([C@H](NC(=O)OCc2ccccc2)C(=O)Nc2cccc(CN)c2)c1` the value was below 4.00; for `CCn1c(=O)c(N2C[C@@H]3[C@H](C2)[C@H]2CC[C@@H]3O2)nc2ccccc21`, below 4.00.
Compound `COc1ccccc1-c1ccc(S(=O)(=O)Nc2ccc(Cl)cc2C(=O)O)cc1` gave a pIC50 of 4.42.
In turn, `NCc1cccc(NC(=O)[C@H]2[C@H]3CCC[C@H]3[C@@H]2NC(=O)OCc2ccccc2)c1` gave a pIC50 below 4.00.
For `NCc1cccc(NC(=O)C[C@H](NC(=O)OCc2ccccc2)c2ccc(C(F)(F)F)cc2)c1` the value was 4.23; for `CCn1c(=O)c(N2CCC[C@@H]2Cn2cncn2)nc2ccccc21`, below 4.00; for `O=C(O)c1c(F)cc(F)cc1NS(=O)(=O)c1ccc(Oc2ccccc2Cl)cc1`, below 4.00.
With `N[C@@H](Cc1c[nH]cn1)C(=O)N1CCC2(CC1)OCCc1cc(O)ccc12` the figure was below 4.00; with `CCn1c(=O)c(N2CC[C@H](c3nncs3)C2)nc2ccccc21`, below 4.00.
For `NC[C@H]1C[C@@H](NC(=O)c2cc(Cl)ccc2NS(=O)(=O)c2ccc(Oc3ccccc3Cl)cc2)C1` the value was below 4.00.
In the case of `CN(C)CCNC(=O)[C@H](NC(=O)OCc1ccccc1)c1ccc(OCc2ccccc2)cc1`, the pIC50 was below 4.00.
On to `NCc1cccc(NC(=O)C[C@H](NC(=O)OCc2ccccc2)C2CCCCC2)c1`, for which the pIC50 was 4.08 and 4.11.
For `O=C(N[C@@H](C(=O)NCC1CCNCC1)c1ccc(OCc2ccccc2)cc1)OCc1ccccc1` the value was below 4.00; for `NCc1cccc(NC(=O)[C@H](NC(=O)Cn2cccn2)c2ccc(OCc3ccccc3)cc2)c1`, below 4.00.
With `C[C@]1(C(=O)N[C@H](C(=O)Nc2cccc(CN)c2)c2ccc(OCc3ccccc3)cc2)CCCO1` the figure was below 4.00.
For `CCn1c(=O)c(N2CC3(COC3)[C@](F)(CO)C2)nc2ccccc21` the value was below 4.00; for `CCn1ccnc(N2CC(=O)[C@@H](c3c[nH]c4ccccc34)C2)c1=O`, below 4.00.
Take `NCc1cccc(NC(=O)c2cc(Cl)ccc2NS(=O)(=O)c2ccc(Oc3ccccc3Cl)cc2)c1`: the pIC50 was below 4.00.
For `CCn1c(=O)c(N2C[C@H]3C[C@H]2C(F)(F)C3)nc2ccccc21` the value was below 4.00.
With `O=C(NCc1nnn[nH]1)c1cc(Cl)ccc1NS(=O)(=O)c1ccc(Oc2ccccc2Cl)cc1` the figure was below 4.00; with `NCc1cccc(NC(=O)C[C@H](NC(=O)OCc2ccccc2)c2ccc(Br)cc2)c1`, 4.31.
Consider `NCc1ccc(-c2ccc(OCC3CCNCC3)nc2-c2ccc(-c3ccoc3)cc2)cc1`, for which the pIC50 was 4.64. Compared with the last compound, the pIC50 is 0.33 log units higher.
The compound `CCC1CN(C(=O)c2cc(Cl)ccc2NS(=O)(=O)c2ccc(Oc3ccccc3Cl)cc2)C1` showed a pIC50 below 4.00.
